The nature of data set [1]: Solubility of nonionic organic compound in water. The settings on record: for solubility in 100 g of water: in 100 g of water as measured at 25° C.; for Solubility of nonionic organic compound: saturated solubility in 100 g of water, 25° C.
Experimental: The solubility is expressed by a saturated solubility of the nonionic organic compound in 100 g of water. The stirring for the measurement was conducted within 1 h.
Data set [2] is described as follows: Surface tension of water containing nonionic organic compound. It counts as physicochemical. Conditions: 0.001 g of compound in 100 g of water, 25° C. The text has this:
The lower limit of the surface tension is preferably 40 mN/m or more.

Structures are written as SMILES.

For the compound `CCCCCCCCC(O)CO` (centres unmarked) [1,2-decanediol], the “solubility in 100 g of water” value in data set [1] is 0.055 g. Moreover, in data set [2], the “Surface tension of water containing nonionic organic compound” value (shortened to “Surface tension”) came out at 55 mN/m.

`CCCCCCC(O)CO` (centres unmarked) [1,2-octanediol]: the “solubility in 100 g of water” value in data set [1] was determined as 0.20 g. Moreover, the “Surface tension” value in data set [2] turned out to be 65 mN/m.

Regarding `CCCCC(CC)COCC(O)CO` (centres unmarked) [2-ethylhexyl glyceryl ether], the “solubility in 100 g of water” value in data set [1] stood at 0.15 g. In data set [2], the “Surface tension” value is on record as 62 mN/m.

Regarding `CCCCCCCCCCC(O)CO` (centres unmarked) [PO-1, 1,2-Dodecanediol], in data set [1], the “solubility in 100 g of water” value came to 0.001 g and the “Solubility of nonionic organic compound” value is 0.001 g/100 g. Further, the “Surface tension” value in data set [2] turned out to be 47.1 mN/m.

For `CCCCCCCCCCCC(=O)OCC(O)CO` (centres unmarked) [PO-2, Dodecanoic acid monoglyceride], in data set [1], the “solubility in 100 g of water” value stood at 0.005 g and the “Solubility of nonionic organic compound” value stood at 0.15 g/100 g. Also, the “Surface tension” value in data set [2] is recorded as 65 mN/m. Moreover, in data set [2] (listed as lauric acid monoglyceride), the “Surface tension” value was 63 mN/m.

In the case of `CC(C)CCCCCCCOCC(O)CO` (centres unmarked) [PO-3, Isodecyl monoglyceryl ether], in data set [1], the “solubility in 100 g of water” value was determined as 0.05 g and the “Solubility of nonionic organic compound” value was determined as 0.05 g/100 g. Also, in data set [2], the “Surface tension” value is 57.8 mN/m.

For `CCCCCCCCCC(=O)OCC(O)CO` (centres unmarked) [decanoic acid monoglyceride], the “Surface tension” value in data set [2] is recorded as 65 mN/m.

These data come from patent US7749316B2, “Water-based inks for ink-jet printing” (Kao Corporation, priority 2006, dated 2010).
